Patent US20240174679A1, “HETEROAROYL AMIDES AS LRRK2 INHIBITORS, PHARMACEUTICAL COMPOSITIONS, AND USES THEREOF” (MERCK SHARP & DOHME LLC, priority 2021, published 2024)

biological target: GST tagged truncated human mutant G2019S LRRK2 (Homo sapiens (Human), UniProt Q5S007, G2019S); assay: LRRK2 Km ATP LanthaScreen Assay; format: biochemical; settings: 134 μM ATP (Km ATP), LRRKtide substrate, negative log of mean IC50 (molar)
Method: Unless otherwise noted, all reactions are magnetically stirred. Unless otherwise noted, when diethyl ether is used in the experiments described below, it is Fisher ACS certified material and is stabilized with BHT. Unless otherwise noted, “concentrated” and/or “solvent removed under reduced pressure” means evaporating the solvent from a solution or mixture using a rotary evaporator or vacuum pump. Unless otherwise noted, flash chromatography is carried out on a Teledyne Isco (Lincoln, NE), Analogix (Burlington, WI), or Biotage (Stockholm, SWE) automated chromatography system using a commercially available cartridge as the column. Columns may be purchased from Teledyne Isco, Analogix, Biotage, Varian (Palo Alto, CA), or Supelco (Bellefonte, PA) and are usually filled with silica gel as the stationary phase. Reversed phase preparative HPLC conditions, where used, can be found at the end of each experimental section. Aqueous solutions were concentrated on a Genevac (Ipswich, ENG) or by freeze-drying/lyophilization. Unless otherwise noted, all LRRK2 pIC50 data presented in tables refers to the LRRK2 G2019S Km ATP LanthaScreen™ assay (Life Technologies Corp., Carlsbad, CA) that is described in the Biological Assay section.
Biological Assay: LRRK2 Km ATP LanthaScreen™ Assay
Compound potency against LRRK2 kinase activity was determined using LanthaScreen™ technology from Life Technologies Corporation (Carlsbad, CA) using a GST20 tagged truncated human mutant G2019S LRRK2 in the presence of the fluorescein-labeled peptide substrate LRRKtide® (LRRK2 phosphorylated ezrin/radixin/moesin (ERM)), also from Life Technologies. The data presented for the Km ATP LanthaScreen™ Assay represents mean IC50 values based on several test results and may have reasonable deviations depending on the specific conditions and reagents used. Km is the Michaelis constant of an enzyme and is defined as the concentration of native substrate (ATP for a kinase) which permits the enzyme to achieve half Vmax (Vmax=rate of reaction when the enzyme is saturated with substrate). IC50 (half-maximal inhibitory concentration) represents the concentration of inhibitor required to inhibit LRRK2 kinase activity by 50%. Assays were performed in the presence of 134 μM ATP (Km ATP). Upon completion, the assay was stopped, and phosphorylated substrate detected with a terbium (Tb)-labeled anti-pERM antibody (cat. no. PV4898). The compound dose response was prepared by diluting a 10 mM stock of compound to a maximum concentration of 9.99 μM in 100% DMSO, followed by custom fold serial dilution in DMSO nine times. 20 nL of each dilution was spotted via a Labcyte Echo onto a 384-well black-sided plate (Corning 3575) followed by 15 μL of a 1.25 nM enzyme solution in 1× assay buffer (50 mM Tris pH 8.5, 10 mM MgCl2, 0.01% Brij-35, 1 mM EGTA, 2 mM dithiothreitol, 0.05 mM sodium orthovanadate). Following a 15-min incubation period at rt, the kinase reaction was started with the addition of 5 μL of 400 nM fluorescein-labeled LRRKtide® (LRRK2 phosphorylated ezrin/radixin/moesin (ERM)) peptide substrate and 134 μM ATP solution in 1× assay buffer. The reaction was allowed to progress at ambient temperature for 90 min. The reaction was then stopped by the addition of 20 μL of TR-FRET Dilution Buffer (Life Technologies, Carlsbad, CA) containing 2 nM Tb-labeled anti-phospho LRRKtide® (LRRK2 phosphorylated ezrin/radixin/moesin (ERM)) antibody and 10 mM EDTA (Life Technologies, Carlsbad, CA). After an incubation period of 1 h at rt, the plate was read on an EnVision® multimode plate reader (Perkin Elmer, Waltham, MA) with an excitation wavelength of 337 nm (Laser) and a reading emission at both 520 and 495 nm. Compound IC50 values were interpolated from nonlinear regression best-fits of the log of the final compound concentration, plotted as a function of the 520/495-nm emission ratio using activity base “Abase”). Abase uses a 4 parameter (4P) logistic fit based on the Levenberg-Marquardt algorithm. […]

Chain of GST tagged truncated human mutant G2019S LRRK2 (Q5S007 970-2527 G2019S): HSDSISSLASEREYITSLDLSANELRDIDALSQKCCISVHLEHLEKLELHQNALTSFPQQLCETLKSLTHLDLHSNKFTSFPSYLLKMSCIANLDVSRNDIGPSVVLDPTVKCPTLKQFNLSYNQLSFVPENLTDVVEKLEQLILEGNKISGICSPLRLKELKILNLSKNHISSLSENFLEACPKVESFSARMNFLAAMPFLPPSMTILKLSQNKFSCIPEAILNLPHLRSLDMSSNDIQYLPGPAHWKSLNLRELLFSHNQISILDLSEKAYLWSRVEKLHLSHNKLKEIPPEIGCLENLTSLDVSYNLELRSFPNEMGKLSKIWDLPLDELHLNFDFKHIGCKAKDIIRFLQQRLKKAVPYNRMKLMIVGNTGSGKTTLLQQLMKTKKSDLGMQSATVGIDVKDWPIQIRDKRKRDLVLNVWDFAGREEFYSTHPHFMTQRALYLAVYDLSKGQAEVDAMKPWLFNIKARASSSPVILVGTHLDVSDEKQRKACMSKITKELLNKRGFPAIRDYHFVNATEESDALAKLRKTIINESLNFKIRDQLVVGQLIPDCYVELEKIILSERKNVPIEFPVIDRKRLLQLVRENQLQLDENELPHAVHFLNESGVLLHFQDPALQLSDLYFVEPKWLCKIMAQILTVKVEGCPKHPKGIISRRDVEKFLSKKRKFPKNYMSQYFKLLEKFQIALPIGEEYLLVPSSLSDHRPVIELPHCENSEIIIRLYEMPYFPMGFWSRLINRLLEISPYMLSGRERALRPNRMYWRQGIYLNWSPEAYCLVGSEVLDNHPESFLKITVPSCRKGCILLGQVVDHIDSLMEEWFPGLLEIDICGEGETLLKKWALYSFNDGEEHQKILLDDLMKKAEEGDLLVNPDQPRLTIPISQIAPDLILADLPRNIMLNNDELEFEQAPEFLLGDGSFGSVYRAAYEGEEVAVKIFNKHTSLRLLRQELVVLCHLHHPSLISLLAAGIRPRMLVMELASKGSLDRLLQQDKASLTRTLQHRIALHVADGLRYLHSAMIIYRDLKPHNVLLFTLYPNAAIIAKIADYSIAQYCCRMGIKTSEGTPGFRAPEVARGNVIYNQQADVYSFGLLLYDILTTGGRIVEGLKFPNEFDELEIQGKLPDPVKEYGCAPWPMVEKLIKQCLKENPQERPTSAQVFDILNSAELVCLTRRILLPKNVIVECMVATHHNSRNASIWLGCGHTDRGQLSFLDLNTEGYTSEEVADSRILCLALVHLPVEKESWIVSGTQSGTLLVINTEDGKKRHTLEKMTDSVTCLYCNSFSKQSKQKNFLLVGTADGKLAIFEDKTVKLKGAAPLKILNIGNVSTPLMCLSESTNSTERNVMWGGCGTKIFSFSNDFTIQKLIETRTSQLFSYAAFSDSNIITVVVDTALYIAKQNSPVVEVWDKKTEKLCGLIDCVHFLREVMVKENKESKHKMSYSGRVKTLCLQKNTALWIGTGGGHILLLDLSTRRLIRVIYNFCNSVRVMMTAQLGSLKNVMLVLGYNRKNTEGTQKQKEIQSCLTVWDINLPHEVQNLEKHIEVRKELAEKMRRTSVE

`Cc1nn(C(C)C2CC2)cc1NC(=O)c1csc(-c2cn[nH]c2)n1` (single isomer, unassigned) [Example 2-3, (R)- or (S)-N-{1-[1-cyclopropylethyl]-3-methyl-1H-pyrazol-4-yl}-2-(1H-pyrazol-4-yl)-1,3-thiazole-4-carboxamide] and `Cc1nn(C(F)F)cc1NC(=O)c1csc(-c2cn[nH]c2)n1` [Example 1-5, N-[1-(difluoromethyl)-3-methyl-1H-pyrazol-4-yl]-2-(1H-pyrazol-4-yl)-1,3-thiazole-4-carboxamide] are within 0.2 log units of each other in “LRRK2 pIC50” value: 6.99 for the first, 7.08 for the second.

Going from `Cc1nn(C(C)C2CC2)cc1NC(=O)c1csc(-c2cn[nH]c2)n1` (single isomer, unassigned) [Example 2-4, (S)- or (R)-N-{1-[1-cyclopropylethyl]-3-methyl-1H-pyrazol-4-yl}-2-(1H-pyrazol-4-yl)-1,3-thiazole-4-carboxamide] to `Cc1nn(C2CCC2)cc1NC(=O)c1csc(-c2cn[nH]c2)n1` [Example 1-3, N-(1-Cyclobutyl-3-methyl-1H-pyrazol-4-yl)-2-(1H-pyrazol-4-yl)thiazole-4-carboxamide], the “LRRK2 pIC50” value rises from 6.82 to 7.83.

First: CC(C1CC1)n1ncc(NC(=O)c2csc(-c3cn[nH]c3)n2)c1C(F)F (single isomer, unassigned) [Example 3-4, (R)- or (S)—N-(1-(1-cyclopropylethyl)-5-(difluoromethyl)-1H-pyrazol-4-yl)-2-(1H-pyrazol-4-yl)thiazole-4-carboxamide]
Second: Cn1cc(NC(=O)c2csc(-c3cn[nH]c3)n2)c(C(F)F)n1 [Example 1-15, N-[3-(difluoromethyl)-1-methyl-1H-pyrazol-4-yl]-2-(1H-pyrazol-4-yl)-1,3-thiazole-4-carboxamide]
The “LRRK2 pIC50” value of the first is lower: 5.69 for the first, 7.79 for the second.

First: CC(C1CC1)n1ncc(NC(=O)c2csc(-c3cn[nH]c3)n2)c1C(F)F (single isomer, unassigned) [Example 3-5, (S)- or (R)—N-(1-(1-cyclopropylethyl)-5-(difluoromethyl)-1H-pyrazol-4-yl)-2-(1H-pyrazol-4-yl)thiazole-4-carboxamide]
Second: O=C(Nc1cnn(C2CCC2)c1)c1csc(-c2cn[nH]c2)n1 [Example 1-1, N-(1-Cyclobutyl-1H-pyrazol-4-yl)-2-(1H-pyrazol-4-yl)thiazole-4-carboxamide]
The “LRRK2 pIC50” value of the first is lower: 5.92 for the first, 8.01 for the second.

Going from `COc1nn(CC(F)(F)F)cc1NC(=O)c1csc(-c2cn[nH]c2)n1` [Example 1-2, N-(3-Methoxy-1-(2,2,2-trifluoroethyl)-1H-pyrazol-4-yl)-2-(1H-pyrazol-4-yl)thiazole-4-carboxamide] to `COc1nn(C)cc1NC(=O)c1csc(-c2cn[nH]c2)n1` [Example 1-14, N-(3-methoxy-1-methyl-1H-pyrazol-4-yl)-2-(1H-pyrazol-4-yl)-1,3-thiazole-4-carboxamide], the “LRRK2 pIC50” value falls from 7.46 to 7.13.

`CNC(=O)c1nn(C)cc1NC(=O)c1csc(-c2cn[nH]c2)n1` [Example 1-4, N-[1-methyl-3-(methylcarba-moyl)-1H-pyrazol-4-yl]-2-(1H-pyrazol-4-yl)-1,3-thiazole-4-carboxamide] and `Cn1cc(NC(=O)c2csc(-c3cn[nH]c3)n2)c(C(N)=O)n1` [Example 1-13, N-(3-carbamoyl-1-methyl-1H-pyrazol-4-yl)-2-(1H-pyrazol-4-yl)-1,3-thiazole-4-carboxamide] are within 0.2 log units of each other in “LRRK2 pIC50” value: 8.15 for the first, 8.17 for the second.

First: O=C(Nc1cn(C2CC2)nc1C1CC1)c1csc(-c2cn[nH]c2)n1 [Example 1-6, N-(1,3-dicyclopropyl-1H-pyrazol-4-yl)-2-(1H-pyrazol-4-yl)-1,3-thiazole-4-carboxamide]
Second: CCn1cc(NC(=O)c2csc(-c3cn[nH]c3)n2)c(C#N)n1 [Example 1-10, N-(3-cyano-1-ethyl-1H-pyrazol-4-yl)-2-(1H-pyrazol-4-yl)-1,3-thiazole-4-carboxamide]
The “LRRK2 pIC50” value of the first is higher: 7.84 for the first, 7.30 for the second.

Compared with `CC(C)n1cc(NC(=O)c2csc(-c3cn[nH]c3)n2)c(OCC(F)(F)F)n1` [Example 1-7, N-[1-(1-methylethyl)-3-(2,2,2-trifluoroethoxy)-1H-pyrazol-4-yl]-2-(1H-pyrazol-4-yl)-1,3-thiazole-4-carboxamide], `CC(C)Oc1nn(C)cc1NC(=O)c1csc(-c2cn[nH]c2)n1` [Example 1-16, N-[1-methyl-3-(1-methylethoxy)-1H-pyrazol-4-yl]-2-(1H-pyrazol-4-yl)-1,3-thiazole-4-carboxamide] is higher in “LRRK2 pIC50” value: 7.17 for the first, 7.43 for the second.

Going from `O=C(Nc1cnn(-c2ccncc2)c1)c1csc(-c2cn[nH]c2)n1` [Example 1-8, 2-(1H-pyrazol-4-yl)-N-(1-pyridin-4-yl-1H-pyrazol-4-yl)-1,3-thiazole-4-carboxamide] to `O=C(Nc1cnn(-c2ccncc2)c1)c1coc(-c2cn[nH]c2)n1` [Example 1-21, 2-(1H-pyrazol-4-yl)-N-(1-pyridin-4-yl-1H-pyrazol-4-yl)-1,3-oxazole-4-carboxamide], the “LRRK2 pIC50” value falls from 8.07 to 7.18.

Going from `Cn1cc(NC(=O)c2csc(-c3cn[nH]c3)n2)c(-c2ccncc2)n1` [Example 1-9, N-(1-methyl-3-pyridin-4-yl-1H-pyrazol-4-yl)-2-(1H-pyrazol-4-yl)-1,3-thiazole-4-carboxamide] to `Cn1cc(NC(=O)c2csc(-c3cn[nH]c3)n2)c(-c2ccc(F)cc2)n1` [Example 1-11, N-[3-(4-fluorophenyl)-1-methy1-1H-pyrazol-4-yl]-2-(1H-pyrazol-4-yl)-1,3-thiazole-4-carboxamide], the “LRRK2 pIC50” value rises from 7.09 to 7.90.

First: CCn1cc(NC(=O)c2csc(-c3cn[nH]c3)n2)c(-c2nnc3n2CCCC3)n1 [Example 1-12, N-[1-ethyl-3-(5,6,7,8-tetrahydro[1,2,4]triazolo[4,3-a]pyridin-3-yl)-1H-pyrazol-4-yl]-2-(1H-pyrazol-4-yl)-1,3-thiazole-4-carboxamide]
Second: COC(=O)c1nn(C)cc1NC(=O)c1csc(-c2cn[nH]c2)n1 [Example 1-19, methyl 1-methyl-4-({[2-(1H-pyrazol-4-yl)-1,3-thiazol-4-yl]carbonyl}amino)-1H-pyrazole-3-carboxylate]
The “LRRK2 pIC50” value of the first is lower: 7.53 for the first, 8.66 for the second.

Going from `CC(C)(C)n1cc(NC(=O)c2csc(-c3cn[nH]c3)n2)cn1` [Example 1-17, N-(1-tert-butyl-1H-pyrazol-4-yl)-2-(1H-pyrazol-4-yl)-1,3-thiazole-4-carboxamide] to `CC(C)n1cc(NC(=O)c2csc(-c3cn[nH]c3)n2)cn1` [Example 1-20, N-[1-(1-methylethyl)-1H-pyrazol-4-yl]-2-(1H-pyrazol-4-yl)-1,3-thiazole-4-carboxamide], the “LRRK2 pIC50” value rises from 7.22 to 7.68.

For `O=C(Nc1cnn(C2CC2)c1)c1coc(-c2cn[nH]c2)n1` [Example 1-18, N-(1-cyclopropyl-1H-pyrazol-4-yl)-2-(1H-pyrazol-4-yl)-1,3-oxazole-4-carboxamide], the “LRRK2 pIC50” value was 6.75.

same assay, conditions: 134 μM ATP (Km ATP), LRRKtide substrate, negative log of mean IC50 (molar), read-out: LRRK2 pIC50 (converted)

Molecule `CC(C1CC1)n1cc(NC(=O)c2csc(-c3cn[nH]c3)n2)cn1` (single isomer, unassigned) [Example 2-1, (R)- or (S)—N-(1-(1-cyclopropylethyl)-1H-pyrazol-4-yl)-2-(1H-pyrazol-4-yl)thiazole-4-carboxamide] has an IC50 of 32.4 nM.
`CC(C1CC1)n1cc(NC(=O)c2csc(-c3cn[nH]c3)n2)cn1` (single isomer, unassigned) [Example 2-2, (S)- or (R)—N-(1-(1-cyclopropylethyl)-1H-pyrazol-4-yl)-2-(1H-pyrazol-4-yl)thiazole-4-carboxamide] was tested, and the IC50 was 38 nM.
